Laboratory results: patent US8440641B2, “Phthalocyanine salt formulations” (Case Western Reserve University, priority 2009, dated 2013)

What was measured:
Assay type in all cases: physicochemical
[1] = Concentration of salt in solution, gel and film; settings: Tween 80 21.6 mg
Excerpt: The identification of water soluble phthalocyanine salts also makes possible the preparation of aqueous gel formulations of phthalocyanine salts. […] These phthalocyanine salt-containing gels provide gel formulations of phthalocyanine salts suitable for topical use. Thin films of the gels can also be dried to form coherent, stable, water-swellable films. These films provide formulations for phthalocyanine salt-containing patches that can be used for topical administration.

[2] = Salt concentration in polar and nonpolar solvents (Table 2)
[3] = Qualitative solubility in representative organic solvents; settings: for solubility in CH2Cl2: CH2Cl2, qualitative; for solubility in dimethylformamide / solubility in ethanol / solubility in hexanes / solubility in toluene: qualitative
[4] = Chemical stability (air, chromatography)

“[HOSiPcOSi(CH3)2(CH2)3NH(CH2)21]^+[OC(O)CHOHCH2C(O)OH]^− [Compound 6]” gave a product conc ([1]; film: Pc 4 0.33 mg, HEC 118 mg) of roughly 0.2%, a product conc ([1]; gel: Pc 4 0.33 mg, H2O 3.0 mL, HEC 118 mg) of roughly 0.01% and a product conc ([1]; solution: Pc 4 0.33 mg, H2O 3.0 mL) of 0.11 mg/mL. The “salt concentration, […] aqueous Tween 80” value ([2]; […] aqueous Tween 80) was 0.165 mM, the “solubility in aqueous solution” value ([2]; aqueous solution, in words) was “show solubility” and the “salt concentration, hexanes” value ([2]; hexanes) was 0.0006 mM. For the same compound, the “solubility in hexanes and mineral oil” value ([2]; hexanes, mineral oil (Nujol), in words) was “little”, the “salt concentration, mineral oil” value ([2]; mineral oil) was 0.0002 mM and the “solubility in CH2Cl2” value [3] was “soluble”. The solubility in dimethylformamide [3] was “soluble”, the solubility in ethanol [3] was “soluble” and the solubility in hexanes [3] was “insoluble”. For the same compound, the solubility in toluene [3] was “moderately soluble”.
In the case of “[ClSiPcOSi(CH3)2(CH2)3NH(CH3)2]^+Cl^− [Compound 28]”, the “time of hydrolysis by air to Pc 4” value ([4]; air) is reported as no more than 30 min, the “solubility in CH2Cl2” value [3] is reported as “soluble” and the solubility in dimethylformamide [3] is reported as “soluble”. For the same compound, the solubility in ethanol [3] was “soluble”, the solubility in hexanes [3] was “insoluble” and the solubility in toluene [3] was “moderately soluble”.
With `CC(=O)O[Si-2]123(O[Si](C)(C)CCCN(C)C)n4c5c6ccccc6c4N=C4c6ccccc6C(=[N+]41)N=c1c4ccccc4c(n12)=NC1=[N+]3C(=N5)c2ccccc21` [Compound 2, CH3C(O)OSiPcOSi(CH3)2(CH2)3N(CH3)2] the stability in air ([4]; air) was “stable”, the “solubility in CH2Cl2” value [3] was “soluble” and the solubility in dimethylformamide [3] was “soluble”. For the same compound, the solubility in ethanol [3] was “soluble”, the solubility in hexanes [3] was “insoluble” and the solubility in toluene [3] was “moderately soluble”.
With “[HOSiPcOSi(CH3)2(CH2)3NH(CH3)2]^+[(HOC(O)(CH2)10Si(CH3)2)(Si(CH3)2O)˜120(Si(CH3)2(CH2)10C(O)O]^− [Compound 16]” the stability on chromatography ([4]; Biobeads S-X3, CH2Cl2) was “decomposed to Pc 4 and the carboxysiloxane”, the “solubility in CH2Cl2” value [3] was “soluble” and the solubility in dimethylformamide [3] was “soluble”. For the same compound, the solubility in ethanol [3] was “soluble”, the solubility in hexanes [3] was “insoluble” and the solubility in toluene [3] was “moderately soluble”.
